Reference: patent US11542297B2, “Compositions and methods for treating CNS disorders” (Sage Therapeutics, Inc., priority 2014, dated 2023)

Key:
[1] = biological target: rat brain cortical membranes ([35S]-TBPS binding, GABA receptor complex); assay: Steroid inhibition of [35S]-TBPS binding; settings: in the presence of 5 μM GABA, read-out: 35S-TBPS Radioligand Displacement (IC50)
Method: TBPS binding assays using rat brain cortical membranes in the presence of 5 μM GABA has been described (Gee et al, J. Pharmacol. Exp. Ther. 1987, 241, 346-353; Hawkinson et al, Mol. Pharmacol. 1994, 46, 977-985; Lewin, A. H et al., Mol. Pharmacol. 1989, 35, 189-194).
Briefly, cortices are rapidly removed following decapitation of carbon dioxide-anesthetized Sprague-Dawley rats (200-250 g). The cortices are homogenized in 10 volumes of […] using a glass/teflon homogenizer and centrifuged at 1500×g for 10 min at 4° C. The resultant supernatants are centrifuged at 10,000×g for 20 min at 4° C. to obtain the P2 pellets. The P2 pellets are resuspended in 200 mM NaCl/50 mM Na—K phosphate pH 7.4 buffer and centrifuged at 10,000×g for 10 min at 4° C. This washing procedure is repeated twice and the pellets are resuspended in 10 volumes of buffer. Aliquots (100 μL) of the membrane suspensions are incubated with 3 nM [^35S]-TBPS and 5 μL aliquots of test drug dissolved in dimethyl sulfoxide (DMSO) (final 0.5%) in the presence of 5 μM GABA. The incubation is brought to a final volume of 1.0 mL with buffer. […] Following a 90 min incubation at room temp, the assays are terminated by filtration through glass fiber filters (Schleicher and Schuell No. 32) using a cell harvester (Brandel) and rinsed three times with ice-cold buffer. Filter bound radioactivity is measured by liquid scintillation spectrometry. Non-linear curve fitting of the overall data for each drug averaged for each concentration is done using Prism (GraphPad).
Various compounds are or can be screened to determine their potential as modulators of [^35S]-TBPS binding in vitro. These assays are or can be performed in accordance with the above discussed procedures.

α1β2γ2 GABAA receptors = α1β2γ2 GABAA receptors (Homo sapiens (Human), UniProt P14867+P47870); assay: Patch clamp electrophysiology of recombinant α1β2γ2 GABAA receptors (Qpatch in Ltk cells); assay type: cell-based; settings: 10 μM test article, potentiation of GABA EC20 (2 μM) current
Method: Cellular electrophysiology is used to measure the pharmacological properties of our GABAA receptor modulators in heterologous cell systems. […] LTK cells are stably transfected with the α1β2γ2 subunits of the GABA receptor and CHO cells are transiently transfected with the α4β3δ subunits via the Lipofecatamine method. Cells were passaged at a confluence of about 50-80% and then seeded onto 35 mm sterile culture dishes containing 2 ml culture complete medium without antibiotics or antimycotics. Confluent clusters of cells are electrically coupled (Pritchett et al., Science, 1988, 242, 1306-1308).
Whole cell currents were measured with HEKA EPC-10 amplifiers using PatchMaster software or by using the high throughput QPatch platform (Sophion). […] In some cases 0.005% cremophor was also added. Intracellular (pipette) solution contained: KCl 130 mM, MgCl2 1 mM, Mg-ATP 5 mM, HEPES 10 mM, EGTA 5 mM, pH 7.2. […] For manual patch clamp recordings, cell culture dishes were placed on the dish holder of the microscope and continuously perfused (1 ml/min) with bath solution. […] For experiments using the QPatch system, cells were transferred as suspension to the QPatch system in the bath solution and automated whole cell recordings were performed.
Cells were voltage clamped at a holding potential of −80 mV. […]

| Structure (SMILES) | IC50 [1] | other results |
| --- | --- | --- |
| C[C@H](C(=O)[C@H]1CC[C@H]2[C@@H]3CC[C@H]4C[C@](C)(O)CC[C@]4(C)[C@H]3CC[C@]12C)n1nnc2ccccc21 [Compound 100, (R)-2-(1H-benzo[d][1,2,3]triazol-1-yl)-1-((3R,5S,8R,9S,10S,13S,14S,17S)-3-hydroxy-3,10,13-trimethylhexadecahydro-1H-cyclopenta[a]phenanthren-17-yl)propan-1-one] | > 500 nM |  |
| CC(C(=O)[C@H]1CC[C@H]2[C@@H]3CC[C@H]4C[C@](C)(O)CC[C@]4(C)[C@H]3CC[C@]12C)N1CCOCC1 (stereo partly drawn) [Compound 155] | > 500 nM |  |
| C[C@@]1(O)CC[C@@]2(C)[C@@H](CC[C@@H]3[C@@H]2CC[C@]2(C)[C@@H](C(=O)Cn4nc5cccc(F)c5n4)CC[C@@H]32)C1 [Compound 246] | < 10 nM |  |
| C[C@H](C(=O)[C@H]1CC[C@H]2[C@@H]3CC[C@@H]4C[C@](C)(O)CC[C@]4(C)[C@H]3CC[C@]12C)n1ccnn1 [Compound 58, (R)-1-((3R,5R,8R,9S,10S,13S,14S,17S)-3-hydroxy-3,10,13-trimethylhexadecahydro-1H-cyclopenta[a]phenanthren-17-yl)-2-(1H-1,2,3-triazol-1-yl)propan-1-one] | > 500 nM |  |
| C[C@H](C(=O)[C@H]1CC[C@H]2[C@@H]3CC[C@@H]4C[C@](C)(O)CC[C@]4(C)[C@H]3CC[C@]12C)n1nccn1 [Compound 56, (R)-1-((3R,5R,8R,9S,10S,13S,14S,17S)-3-hydroxyl-3,10,13-trimethylhexadecahydro-1H-cyclopenta[a]phenanthren-17-yl)-2-(2H-1,2,3-triazol-2-yl)propan-1-one] | 50 to 100 nM |  |
| C[C@@]1(O)CC[C@@]2(C)[C@@H](CC[C@@H]3[C@@H]2CC[C@]2(C)[C@@H](C(=O)Cn4nnc5ccc(Cl)c(F)c54)CC[C@@H]32)C1 [Compound 113] |  | GABA (α1β2γ2) Qpatch in Ltk, % efficacy at 10 μM (α1β2γ2 GABAA receptors): B (“B” >100-500) |
| C[C@@H](C(=O)[C@H]1CC[C@H]2[C@@H]3CC[C@@H]4C[C@](C)(O)CC[C@]4(C)[C@H]3CC[C@]12C)n1nc2ccccc2n1 [Compound 61, (S)-2-(2H-benzo[d][1,2,3]triazol-2-yl)-1-((3R,5R,8R,9S,10S,13S,14S, 17S)-3-hydroxy-3,10,13-trimethylhexadecahydro-1H-cyclopenta[a]phenanthren-17-yl)propan-1-one] | 100 to 500 nM |  |
| CC(C)(C(=O)[C@H]1CC[C@H]2[C@@H]3CC[C@H]4C[C@](C)(O)CC[C@]4(C)[C@H]3CC[C@]12C)n1nnc2ccccc21 [Compound 102, 2-(1H-benzo[d][1,2,3]triazol-1-yl)-1-((3R,5S,8R,9S,10S,13S,14S,17S)-3-hydroxy-3,10,13-trimethylhexadecahydro-1H-cyclopenta[a]phenanthren-17-yl)-2-methylpropan-1-one] | > 500 nM |  |
| C[C@@H](C(=O)[C@H]1CC[C@H]2[C@@H]3CC[C@@H]4C[C@](C)(O)CC[C@]4(C)[C@H]3CC[C@]12C)n1nnc2ccccc21 [Compound 63, (S)-2-(1H-benzo[d][1,2,3]triazol-1-yl)-1-((3R,5R,8R,9S,10S,13S,14S,17S)-3-hydroxy-3,10,13-trimethylhexadecahydro-1H-cyclopenta[a]phenanthren-17-yl)propan-1-one] | 10 to 50 nM |  |
| C[C@@]1(O)CC[C@@]2(C)[C@H](CC[C@@H]3[C@@H]2CC[C@]2(C)[C@@H](C(=O)Cn4cc(C#N)cn4)CC[C@@H]32)C1 [Compound 10, 1-(2-((3R,5R,8R,9S,10S,13S,14S,17S)-3-hydroxy-3,10,13-trimethylhexadecahydro-1H-cyclopenta[a]phenanthren-17-yl)-2-oxoethyl)-1H-pyrazole-4-carbonitrile] | < 10 nM |  |
| C[C@H](C(=O)[C@H]1CC[C@H]2[C@@H]3CC[C@H]4C[C@](C)(O)CC[C@]4(C)[C@H]3CC[C@]12C)n1nccn1 [Compound 90, (R)-1-((3R,5S,8R,9S,10S,13S,14S,17S)-3-hydroxy-3,10,13-trimethylhexadecahydro-1H-cyclopenta[a]phenanthren-17-yl)-2-(2H-1,2,3-triazol-2-yl)propan-1-one] | > 500 nM |  |
| C[C@H](C(=O)[C@H]1CC[C@H]2[C@@H]3CC[C@H]4C[C@](C)(O)CC[C@]4(C)[C@H]3CC[C@]12C)n1ccnn1 [Compound 92, (R)-1-((3R,5S,8R,9S,10S,13S,14S,17S)-3-hydroxy-3,10,13-trimethylhexadecahydro-1H-cyclopenta[a]phenanthren-17-yl)-2-(1H-1,2,3-triazol-1-yl)propan-1-one] | > 500 nM |  |
| CSc1ccc2nnn(CC(=O)[C@H]3CC[C@H]4[C@@H]5CC[C@H]6C[C@](C)(O)CC[C@]6(C)[C@H]5CC[C@]34C)c2c1 [Compound 248] | < 10 nM |  |
| C[C@@]1(O)CC[C@@]2(C)[C@H](CC[C@@H]3[C@@H]2CC[C@]2(C)[C@@H](C(=O)Cn4nc5ccc(S(C)(=O)=O)cc5n4)CC[C@@H]32)C1 [Compound 104, 1-((3R,5R,8R,9S,10S,13S,14S,17S)-3-hydroxy-3,10,13-trimethylhexadecahydro-1H-cyclopenta[a]phenanthren-17-yl)-2-(5-(methylsulfonyl)-2H-benzo[d][1,2,3]triazol-2-yl)ethanone] | < 10 nM |  |
| C[C@@H](C(=O)[C@H]1CC[C@H]2[C@@H]3CC[C@H]4C[C@](C)(O)CC[C@]4(C)[C@H]3CC[C@]12C)n1cc(C#N)cn1 [Compound 81, 1-((S)-1-((3R,5S,8R,9S,10S,13S,14S,17S)-3-hydroxy-3,10,13-trimethylhexadecahydro-1H-cyclopenta[a]phenanthren-17-yl)-1-oxopropan-2-yl)-1H-pyrazole-4-carbonitrile] | 10 to 50 nM |  |
| C[C@H](C(=O)[C@H]1CC[C@H]2[C@@H]3CC[C@H]4C[C@](C)(O)CC[C@]4(C)[C@H]3CC[C@]12C)n1cc(C#N)cn1 [Compound 80, 1-((R)-1-((3R,5S,8R,9S,10S,13S,14S,17S)-3-hydroxy-3,10,13-trimethylhexadecahydro-1H-cyclopenta[a]phenanthren-17-yl)-1-oxopropan-2-yl)-1H-pyrazole-4-carbonitrile] | 100 to 500 nM |  |
| CN(C)C(=O)c1cnn(CC(=O)[C@H]2CC[C@H]3[C@@H]4CC[C@H]5C[C@](C)(O)CC[C@]5(C)[C@H]4CC[C@]23C)c1 [Compound 86] | < 10 nM |  |
| C[C@@]1(O)CC[C@@]2(C)[C@H](CC[C@@H]3[C@@H]2CC[C@]2(C)[C@@H](C(=O)Cn4nc5ccc(OC(F)(F)F)cc5n4)CC[C@@H]32)C1 [Compound 106] |  | Emax at 10 µM (α1β2γ2 GABAA receptors; read-out: GABA (α1β2γ2) Qpatch in Ltk, % efficacy at 10 μM): 100 to 500% |
